In patent US12076307B2, “Compositions for prevention or treatment of acute radiation syndrome and other radiation exposure” (priority 2017, dated 2024):
pIC50: −log10 of the molar value.

How the values were obtained:
[1] = tested on: Balb/c mice, γ-Radiation TBI; test: Survival after total body irradiation 6.5-10 Gy (Example 4); assay type: in vivo, mouse; details: 250 mg/kg/day PO
Excerpt: In order to evaluate effects of PLAG on survival rates of animal models exposed to radiation, the following test groups were constructed as shown in Table 3 and results are shown in FIG. 7B, and FIG. 8-12. As discussed in Examples above, the first group of untreated group (negative control) of ARS-induced mice after radiation was compared to the second group of treated group of ARS-induced mice with PLAG after radiation.

[2] = Pathway of excretion in rats after single oral [14C]EC-18; assay type: in vivo, rat; details: 50 mg/kg oral, 50 mg/kg
Procedure: To assess the routes of EC-18 excretion, male rats were administered a single dose of [^14C]EC-18 (oral dose of 50 mg/kg), after which, radioactive concentrations were measured in urine, feces, and exhaled air in the chamber of the animals for 168 hrs, and in the body after the autopsy.

[3] = tested on: Balb/c mice, 6.11 Gy gamma-radiation; test: Radiation-induced pneumonitis mouse model: lung damage; assay type: in vivo; details: 50 or 250 mg/kg daily Day 0 to 3
Procedure: To examine the effect of EC-18 on the lung damage in pneumonitis, female Balb/c mice (n=3/group) were exposed to 6.11 Gy of gamma-radiation at Day 0. EC-18 at 50 or 250 mg/kg was administered daily from Day 0 to 3. To verify the vascular leakage of the lung due to radiation exposure, Evans blue staining was diluted with PBS and injected i.v. into mice 30 mins before sacrificing them on Day 3 (FIG. 56).
The further microscopical analysis was conducted by extracting the lung after sacrificing the mice. The perfused lung tissues were fixed in 10% buffered formalin for 24 hrs, embedded in paraffin, sectioned at 4 μm, and stained with hematoxylin and eosin (H&E) staining. […] In contrast, the infiltration of the RBCs into the lung tissues was not observed in both the EC-18-treated group.

[4] = Plasma protein binding by rapid equilibrium dialysis, human
Procedure: The plasma protein binding ability of EC-18 was tested by rapid equilibrium dialysis (RED). The chamber separated by a dialysis tubing membrane (cut-off: 8 kDa) was filled on one side with rat or human plasma mixed with phosphate buffer and on the other side with rat or human plasma mixed with the test or standard reference material (test concentration: 1 μM).

OAT3 = molecular target: T1, OAT3 (Homo sapiens, UniProt Q8TCC7); test: Drug transporter inhibition, OAT3; assay type: in vitro ADME; details: 100 nM [3H] estrone-3-sulfate; transfected HEK-293 cells
T1 construct: expressed in transfected cells; host or cells: HEK-293
Procedure: (§1) This study examined the potential of EC-18 to interact with the transporter proteins that have been known to be involved in the absorption of commercially available drugs. EC-18 was pre-incubated with HEK-293 cells and LLC-PK1 cells that were transfected with the genes of most drug transporters as follows: OATP1B1, OATP1B3, OAT1, OAT3 and OCT2, and BCRP and P-gp, respectively.

Sprague-Dawley rats = test: Central nervous system of rats (FOB); assay type: in vivo, rat; details: doses up to 2000 mg/kg; to 24 hrs
Procedure: Sprague-Dawley rats (n=8 males/group) received control material (olive oil) or EC-18 at 500, 1000, and 2000 mg/kg. The functional observational battery test, which included observations inside the cage, in open space, and while holding in the hands, along with sensory-motor function, and body temperature measurements were performed before EC-18 administration and 0.5, 1, 3, 6, and 24 hrs after control or EC-18 administration.

P-gp = molecular target: T2, P-gp (Homo sapiens, UniProt P08183); test: Drug transporter inhibition, P-gp; assay type: in vitro ADME; details: [3H]digoxin; transfected LLC-PK1 cells
T2 construct: expressed in transfected cells; host or cells: LLC-PK1
Procedure: as §1

[5] = tested on: Balb/c mice, gamma-ray 6.11 Gy; test: DAMP (HMGB1, S100A9) in blood of irradiated mice; assay type: in vivo, mouse; details: 50 and 250 mg/kg oral 3 days from day 1
Procedure: To confirm the proposed mechanism of EC-18 in the in vivo model, female Balb/c mice were irradiated with a gamma-ray of 6.11 Gy on day 0. Then, EC-18 (50 and 250 mg/kg) or PBS was orally administered for 3 consecutive days from day 1 and the mice were sacrificed on the third day. […] While, from the EC-18-treated group, the amount of DAMP reduced compared to the control group, supporting the proposed mechanism of EC-18. Establishment of a Balb/C Mouse Model for ARS

Balb/c mice, TBI = test: Estimation of dose reduction factor (DRF); assay type: in vivo, mouse
Procedure: Analysis of several TBI, 24-hr delayed administration of EC-18 at 250 mg/kg in Balb/c mice yields an estimate of the dose reduction factor (DRF) of EC-18.

T1 sequence (Q8TCC7 whole entry, species assumed): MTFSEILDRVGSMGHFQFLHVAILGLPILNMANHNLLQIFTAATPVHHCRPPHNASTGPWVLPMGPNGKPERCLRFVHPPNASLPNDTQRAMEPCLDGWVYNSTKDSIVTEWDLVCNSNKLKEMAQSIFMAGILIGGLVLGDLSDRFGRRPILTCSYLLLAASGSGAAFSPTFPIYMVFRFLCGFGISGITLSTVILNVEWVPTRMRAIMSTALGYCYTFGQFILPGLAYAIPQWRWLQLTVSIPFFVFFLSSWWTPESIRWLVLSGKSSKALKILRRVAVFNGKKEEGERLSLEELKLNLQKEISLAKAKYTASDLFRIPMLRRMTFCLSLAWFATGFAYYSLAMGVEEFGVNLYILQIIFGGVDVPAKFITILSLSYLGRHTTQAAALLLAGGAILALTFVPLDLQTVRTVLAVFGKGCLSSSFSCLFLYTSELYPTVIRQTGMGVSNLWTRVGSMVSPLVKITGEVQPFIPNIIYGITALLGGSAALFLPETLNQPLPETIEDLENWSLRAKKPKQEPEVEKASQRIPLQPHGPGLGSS
T2 sequence (P08183 whole entry): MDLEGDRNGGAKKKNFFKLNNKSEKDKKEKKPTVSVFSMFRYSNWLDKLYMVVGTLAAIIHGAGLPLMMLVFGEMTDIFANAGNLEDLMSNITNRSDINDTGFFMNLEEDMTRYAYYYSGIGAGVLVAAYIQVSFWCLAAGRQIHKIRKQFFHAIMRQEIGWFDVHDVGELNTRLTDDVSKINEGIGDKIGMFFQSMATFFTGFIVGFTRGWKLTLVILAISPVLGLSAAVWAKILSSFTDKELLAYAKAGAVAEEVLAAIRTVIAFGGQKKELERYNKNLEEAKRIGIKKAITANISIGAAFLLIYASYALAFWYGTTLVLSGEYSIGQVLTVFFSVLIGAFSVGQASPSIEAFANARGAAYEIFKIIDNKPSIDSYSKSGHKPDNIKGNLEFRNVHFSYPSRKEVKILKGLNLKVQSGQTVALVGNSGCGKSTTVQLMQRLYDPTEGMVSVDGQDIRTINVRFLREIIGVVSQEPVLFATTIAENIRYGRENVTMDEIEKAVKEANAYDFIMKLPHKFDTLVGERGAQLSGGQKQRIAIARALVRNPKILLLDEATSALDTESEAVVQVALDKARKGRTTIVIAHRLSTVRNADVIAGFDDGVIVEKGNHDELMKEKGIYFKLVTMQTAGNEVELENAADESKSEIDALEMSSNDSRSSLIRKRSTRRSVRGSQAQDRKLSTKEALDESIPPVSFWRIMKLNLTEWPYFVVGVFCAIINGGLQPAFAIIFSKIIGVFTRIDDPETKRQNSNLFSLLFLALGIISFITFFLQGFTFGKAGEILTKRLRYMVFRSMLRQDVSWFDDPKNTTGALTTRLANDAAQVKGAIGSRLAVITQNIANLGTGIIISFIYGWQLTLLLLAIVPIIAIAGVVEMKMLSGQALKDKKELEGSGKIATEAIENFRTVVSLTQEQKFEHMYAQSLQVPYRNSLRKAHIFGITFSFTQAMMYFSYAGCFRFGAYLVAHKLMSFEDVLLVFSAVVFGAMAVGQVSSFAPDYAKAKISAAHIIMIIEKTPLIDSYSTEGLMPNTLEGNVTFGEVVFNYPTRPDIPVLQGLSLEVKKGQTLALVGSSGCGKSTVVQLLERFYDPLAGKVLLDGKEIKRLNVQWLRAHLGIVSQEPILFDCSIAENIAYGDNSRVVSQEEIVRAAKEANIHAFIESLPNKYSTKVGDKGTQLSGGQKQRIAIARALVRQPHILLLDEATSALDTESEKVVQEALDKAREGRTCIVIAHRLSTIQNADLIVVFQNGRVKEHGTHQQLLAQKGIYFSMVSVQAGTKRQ

CCCCC/C=C\C/C=C\CCCCCCCC(=O)OC(COC(C)=O)COC(=O)CCCCCCCCCCCCCCC (centres unmarked) [EC-18, 1-palmitoyl-2-linoleoyl-3-acetylglycerol]
survival rate vs untreated mice ([1]; 6.5 Gy TBI, BALB/c 9 weeks old): improved
survival rate vs untreated mice ([1]; 6.5 Gy TBI, BALB/c 11 weeks old): improved
survival rate vs untreated mice ([1]; 7 Gy TBI, 9 weeks old): improved until about day 15
survival rate vs untreated mice ([1]; 8 Gy TBI, 9 weeks old): improved until about day 14
survival rate vs untreated mice ([1]; 10 Gy TBI, 9 weeks old): improved until about day 9
Cumulative Radioactive Concentration Relative to the Administered Dose, Exhaled Air ([2]; 0-24 hr): approximately 71%
Cumulative Radioactive Concentration Relative to the Administered Dose, Feces ([2]; 0-24 hr): ~3%
Cumulative Radioactive Concentration Relative to the Administered Dose, Total ([2]; 0-24 hr): approximately 76%
Cumulative Radioactive Concentration Relative to the Administered Dose, Urine ([2]; 0-24 hr): ~2%
Cumulative Radioactive Concentration Relative to the Administered Dose, Exhaled Air ([2]; 0-72 hr): ~77%
Cumulative Radioactive Concentration Relative to the Administered Dose, Feces ([2]; 0-72 hr): ~4%
Cumulative Radioactive Concentration Relative to the Administered Dose, Total ([2]; 0-72 hr): approximately 83%
Cumulative Radioactive Concentration Relative to the Administered Dose, Urine ([2]; 0-72 hr): ~2%
Cumulative Radioactive Concentration Relative to the Administered Dose, Cadaver ([2]; 0-168 hr): approximately 10%
Cumulative Radioactive Concentration Relative to the Administered Dose, Exhaled Air ([2]; 0-168 hr): ~79%
Cumulative Radioactive Concentration Relative to the Administered Dose, Feces ([2]; 0-168 hr): ~4%
Cumulative Radioactive Concentration Relative to the Administered Dose, Total ([2]; 0-168 hr): ~96%
Cumulative Radioactive Concentration Relative to the Administered Dose, Urine ([2]; 0-168 hr): ~2%
infiltration of RBCs into the lung tissues (H&E) [3]: not observed
vascular leakage of the lung (Evans blue) [3]: mitigated the vascular leakage
Plasma Protein Binding Rate ([4]; Humans, 1 μM, 4 hrs RED, n=3): >99%
fraction unbound at 4 hrs, 1 μM ([4]; human, plasma): < 0.01
pIC50 (OAT3): < 4.49
CNS (functional observational battery) (Sprague-Dawley rats): did not affect the CNS
pIC50 (P-gp): < 4.49
amount of DAMP (HMGB1, S100A9) in blood vs control group [5]: reduced
DRF at LD30/30 (Balb/c mice, TBI; 250 mg/kg): 1.45
DRF at LD70/30 (Balb/c mice, TBI; 250 mg/kg): 1.18
DRF at LD95/30 (Balb/c mice, TBI; 250 mg/kg): 1.05
LD Estimate LD30/30, Presence of EC-18 (Balb/c mice, TBI; 250 mg/kg): 5.26 Gy
LD Estimate LD50/30, Presence of EC-18 (Balb/c mice, TBI; 250 mg/kg): 5.50 Gy
LD Estimate LD70/30, Presence of EC-18 (Balb/c mice, TBI; 250 mg/kg): 5.76 Gy
LD Estimate LD95/30, Presence of EC-18 (Balb/c mice, TBI; 250 mg/kg): 6.09 Gy
Lethality, Presence of EC-18 (Balb/c mice, TBI; 6.11 Gy, 250 mg/kg 24-hr delayed): 6/40 (15%)
Lethality, Presence of EC-18 (Balb/c mice, TBI; 6.5 Gy, 250 mg/kg 24-hr delayed): 8/20 (40%)
Lethality, Presence of EC-18 (Balb/c mice, TBI; 7 Gy, 250 mg/kg): 10/10 (100%)
Lethality, Presence of EC-18 (Balb/c mice, TBI; 8 Gy, 250 mg/kg): 10/10 (100%)
Lethality, Presence of EC-18 (Balb/c mice, TBI; 10 Gy, 250 mg/kg): 4/4 (100%)
